Measurements from patent US20220168301A1, “METHODS FOR TREATING SYMPTOMATIC ORTHOSTATIC HYPOTENSION” (Cerecor Inc, priority 2019, published 2022).
Like-named read-outs stand apart in the source and are kept apart here.

Tests used:
[1] = monkeys, cited from earlier work
[2] = rats, cited from earlier work
[3] = Plasma pharmacokinetics of CERC-301, single and 7-day repeated dose, healthy subjects; assay type: in vivo, human; conditions: for half-life: read-out: Average t1/2; for Tmax: read-out: Median tmax
Experimental: (§1) The study was a randomized, double-blind, placebo-controlled parallel-group, three-part, repeated dose in-patient study investigating the safety, tolerability, PK, and PD of CERC-301 in healthy subjects.
(§2) Subjects received 8, 12, 16 or 20 mg CERC-301 or matching placebo once-daily for 7 days.
PK endpoints included the following determined from plasma CERC-301 concentration data: • Day 1 parameters include Cmax, Tmax, AUC0-24, AUC0-inf, AUC%extrap, CL/F, Vz/F, and t1/2 • Day 7 parameters include Cmax, Tmax, AUC0-24, AUC0-inf, AUC%extrap, CL/F, Vss/F, t1/2, and Cavg • Trough concentrations will be reported for Days 2-8 • Accumulation after 7-days of dosing will be investigated by calculating: • Observed Accumulation Ratio: AUCo-24 (Day 7)/AUC0-24 (Day 1) • Steady State Accumulation Ratio: AUC0-24 (Day 7)/AUC0-int (Day 1) • Cmax ratio: Cmax (Day 7)/Cmax (Day 1)
Pharmacokinetic parameters were determined for CERC-301 using noncompartmental methods based on plasma CERC-301 concentration data following the first and last dose of CERC-301. […] Mean plasma CERC-301 concentrations on Day 7 were approximately 20% to 40% higher from 2 to 24 hours postdose in the intermediate age and elderly subgroups, respectively, compared to the young age subgroup, and were approximately 20% higher from 2 to 24 hours postdose in female subjects compared to male subjects.

[4] = system: patients with symptomatic nOH associated with Parkinson's disease; experiment: Safety and tolerability of single doses in patients with nOH associated with Parkinson's disease; assay type: in vivo, human
Experimental: This study was designed as a randomized, double-blind, placebo-controlled trial in order to distinguish effects of active treatment in an efficient and unbiased manner. As CERC-301 had not previously been tested in subjects with symptomatic OH, a single escalating dose study design was used to ensure safety of the study participants.
Subjects were dosed on five separate occasions, approximately 7-10 days apart, with one of four single escalating doses of CERC-301 or placebo and underwent an orthostatic challenge test to assess the safety, tolerability, effect on blood pressure, and PK. Subjects also completed a symptomatic assessment following the orthostatic challenge. Subjects were enrolled and randomized based on the dosing schedule in Table 4:
AEs were monitored and the following information recorded: • Verbatim complaint • Whether the event was treatment-emergent (TEAE) • Whether event was serious (SAE) • Date of onset • Severity of event • Relationship of event to study drug • Action taken regarding study drug due to the event • Clinical outcome of event (resolved or ongoing) • If resolved, provide date of resolution
The following vital signs were measured during the study: • Blood pressure (systolic and diastolic [mm Hg]) • Heart rate (beats per minute [bpm]) • Oral body temperature (°C)
Two analysis sets were used. […] The SAF consists of all randomized subjects who receive at least one dose of study medication. […] The PKAS consists of all subjects from the SAF for whom sufficient plasma concentration data are available to facilitate the calculation of at least one PK parameter.
All safety and tolerability data are summarized using descriptive statistics. They are listed and summarized in tabular and/or graphical form. […] Descriptive statistics for laboratory values and their change or shift from baseline for each dose group are provided for each scheduled time of collection. Descriptive statistics for vital signs and their change from baseline for each dose group are provided for each scheduled time of collection. The placebo subjects are combined into a single placebo group for summary presentations.

[5] = system: patients with moderate Parkinson's disease; conditions: single oral dose 7 mg; cited from earlier work
[6] = system: healthy subjects; experiment: Safety and tolerability over 7 days of once-daily administration in healthy subjects; assay type: in vivo, human
Experimental: as §1, §2
The safety variables evaluated included treatment-emergent adverse events (TEAE), vital signs, clinical safety laboratories (chemistry, hematology, urinalysis), electrocardiograms (ECGs), physical examinations, Clinician Administered Dissociated States Scale (CADSS) and Columbia-Suicide Severity Rating Scale (C-SSRS).

[7] = whole study, active and placebo not separated

- Plasma CERC-301 concentrations increase with dose ([3]; 8 to 20 mg, steady-state daily dosing): approximately dose proportional
- Apparent oral clearance, lower in female subjects compared to male subjects ([3]; Day 7): approximately 15%
- Apparent oral clearance, lower in intermediate age group compared to young age group ([3]; Day 7): approximately 18%
- Average Cmax, higher in intermediate age and elderly subgroups compared to young age group ([3]; Day 7): approximately 30%
- Average t1/2, higher in elderly age group compared to young age group ([3]; Day 7): ~38%
- Average t1/2, higher in female subjects compared to male subjects ([3]; Day 7): approximately 16%
- Average t1/2, higher in intermediate age group compared to young age group ([3]; Day 7): approximately 27%
- Mean plasma CERC-301 concentrations, higher in elderly subgroup compared to young age subgroup ([3]; Day 7, 2 to 24 hours postdose): ~40%
- Mean plasma CERC-301 concentrations, higher in female subjects compared to male subjects ([3]; Day 7, 2 to 24 hours postdose): approximately 20%
- Mean plasma CERC-301 concentrations, higher in intermediate age subgroup compared to young age subgroup ([3]; Day 7, 2 to 24 hours postdose): approximately 20%
- Cmax and AUC increase with dose ([3]; Days 1 and 7, 8 to 20 mg): approximately dose-proportional
- half-life ([3]; both sexes, human, plasma, oral, male and female subjects, Day 7): 21 to 24 h
- Tmax ([3]; both sexes, human, plasma, oral, male and female subjects): 1.75 to 2 h
- Average Day 7 to Day 1 Cmax ratio ([3]; elderly age group): 1.53
- Mean observed accumulation index ([3]; elderly age group): 2.12
- Mean steady state accumulation index ([3]; elderly age group): 1.30
- Average apparent volume of distribution ([3]; elderly age subgroup, Day 7): 111 L
- Average Day 7 to Day 1 Cmax ratio ([3]; females): 1.38
- Mean observed accumulation index ([3]; females): 1.88
- Mean steady state accumulation index ([3]; females): 1.10
- Average apparent volume of distribution ([3]; females, Day 7): 105 L
- Oral bioavailability ([3]; human, in vivo, po): orally bioavailable
- Tmax ([3]; human, plasma, oral, Day 1, 8 to 20 mg): 2 to 3 h
- Tmax ([3]; human, plasma, oral, Day 7, 8 to 20 mg): 1.5 to 3 h
- Tmax ([3]; human, plasma, oral, young subjects, Days 1 and 7, 8 to 20 mg): 1.5 to 3 h
- half-life ([3]; human, plasma, oral, young, intermediate age and elderly subgroups, Day 7): 20 to 28 h
- Tmax ([3]; human, plasma, oral, young, intermediate age and elderly subgroups): 1.5 to 2.5 h
- Vd ([3]; human, plasma, oral, young subjects, Day 7, 8 to 20 mg, read-out: Average apparent volume of distribution): 83 to 115 L
- half-life ([3]; human, plasma, oral, young subjects, Day 7, 8 to 20 mg): 17 to 21 h
- Average Day 7 to Day 1 Cmax ratio ([3]; intermediate age group): 1.41
- Mean observed accumulation index ([3]; intermediate age group): 1.92
- Mean steady state accumulation index ([3]; intermediate age group): 1.13
- Average apparent volume of distribution ([3]; intermediate age subgroup, Day 7): 121 L
- Average Day 7 to Day 1 Cmax ratio ([3]; males): 1.36
- Mean observed accumulation index ([3]; males): 1.72
- Mean steady state accumulation index ([3]; males): 1.15
- Average apparent volume of distribution ([3]; males, Day 7): 108 L
- Steady-state predose plasma CERC-301 concentrations achieved ([3]; repeated daily doses): by study day 5 or 6
- Average Day 7 to Day 1 Cmax ratio ([3]; young age group): 1.15
- Mean observed accumulation index ([3]; young age group): 1.65
- Mean steady state accumulation index ([3]; young age group): 1.01
- Average apparent volume of distribution ([3]; young age subgroup, Day 7): 115 L
- Steady-state accumulation index (AUC0-24 Day 7/AUC0-inf Day 1) ([3]; young subjects, on average): 1.1
Structure (SMILES): Cc1ccc(COC(=O)N2CC[C@H](CNc3ncccn3)[C@H](F)C2)cc1 [CERC-301]
- Excretion [1]: excreted exclusively as metabolites via both the biliary and renal routes
- Metabolism [1]: highly metabolized via multiple cytochrome P450 (CYP450) enzymes
- Absorption ([1]; oral administration): rapidly absorbed after oral administration
- Excretion [2]: excreted exclusively as metabolites via both the biliary and renal routes
- Metabolism [2]: highly metabolized via multiple cytochrome P450 (CYP450) enzymes
- Absorption ([2]; oral administration): rapidly absorbed after oral administration
- Safety and tolerability ([4]; single doses of 8, 12, 16 and 20 mg): safe and well tolerated
- Signals of increased heart rate or supine hypertension during the recumbent phase of the OST, active versus placebo ([4]; single doses of 8 to 20 mg): No signals of increased heart rate or, supine hypertension
- SAEs ([4]; whole study): No SAEs were reported
- AE reported: blurred vision [4, 7]: 14.3%
- AE reported: dizziness [4, 7]: 7.1%
- AE reported: fall [4, 7]: 14.3%
- AE reported: hypoaesthesia [4, 7]: 7.1%
- AE reported: hypotension [4, 7]: 7.1%
- AE reported: memory impairment [4, 7]: 7.1%
- AE reported: nasal congestion [4, 7]: 7.1%
- AE reported: on/off phenomenon [4, 7]: 7.1%
- AE reported: somnolence [4, 7]: 7.1%
- AE reported: squamous cell carcinoma [4, 7]: 7.1%
- Plasma concentration relative to target [5]: > 400 nM
- Systolic and diastolic blood pressure relative to placebo [5]: increases in systolic and diastolic blood pressure relative to placebo
- Tolerability [5]: generally well tolerated
- Changes in vital signs, ECGs or physical examination attributable to CERC-301 ([6]; 8 to 20 mg for 7 days): no clinically significant adverse changes
- Dose-related or age-related differences in TEAEs or related AEs ([6]; 8 to 20 mg for 7 days): no clear-cut dose-related or age-related differences
- Most common related AEs (each in at least two subjects receiving CERC-301) ([6]; 8 to 20 mg for 7 days): feeling abnormal, headache, feeling of relaxation, elevated mood, dizziness, logorrhea, sedation, visual impairment, energy increased, palpitations, disturbance in attention, hypervigilance, confusional state, oral paresthesia, anxiety, chest pain, depressed mood, diarrhea, and balance disorder
- Laboratory abnormalities attributable to CERC-301 ([6]; except ALT/AST increases in one elderly and elevated prolactin in one young, both 12 mg): no clinically significant laboratory abnormalities
- Tolerability ([6]; repeated daily doses of 8, 12, 16 and 20 mg for 7 days): generally well tolerated
